How the values were obtained:
[1] = system: chymotrypsin-like activity of the 26S proteasome; test: Proteasome activity assay in MCF7 cell lysates; type: cell-based; details: for Geometric mean, Treatment (Control = 1): MCF7, Figure S6
Description: (§1) Building on previous findings, we investigated how selected RUN compounds influence proteasomal function itself. Specifically, we examined the chymotrypsin-like activity of the 26S proteasome following a 16 hour treatment with 7.5 μM RUN compounds in the HEK293 cell line. […] In addition, two other cell lines, MCF7 and SH-SY5Y, were measured (see the SI, Fig. S6).
(§2) Figure S6: RUN compounds enhance chymotrypsin-like activity of the 26S proteasome in […]
(§3) Cells were treated with 5 µM RUN compounds for 16 hours, with DMSO (0.5%) as the vehicle control. Proteasome chymotrypsin-like activity was measured in cell lysates at 37 °C. Four independent experiments were conducted. Statistical analysis was performed using ratio paired t-tests corrected for multiple comparisons with the Holm-Šídák's method (α = 0.05). Detailed results of the analysis are shown in Supplementary Table S16. […]
(§4) 2.7 Proteasome activity assay
(§5) The corresponding cell lines (HEK293, MCF7, or SH-SY5Y) were seeded into 6-well plates and allowed to adhere overnight under standard culture conditions. On the following day, HEK293 cells were treated with 7.5 µM RUN compounds, whereas MCF7 and SH-SY5Y cells were treated with 5 µM RUN compounds, for 16 hours each. After treatment, cells were harvested, resuspended in lysis buffer (50 mM HEPES, pH 7.5; 5 mM EDTA; 150 mM NaCl; 2 mM ATP; 1% Triton), and centrifuged at 15,000 rpm for 15 minutes at 4 °C. The resulting lysates (25 µg total protein) were incubated with 200 µM of the fluorogenic substrate Suc-Leu-Leu-Val-Tyr-AMC (Bachem, I1395) in assay buffer (50 mM Tris, pH 8.0; 10 mM MgCl₂; 1 mM ATP; 1 mM DTT) at 37 °C. Free AMC release was detected by measuring fluorescence at 360/460 nm. Results of RUN compounds were compared to the DMSO control using a ratio paired t-test corrected for multiple comparisons with the Holm-Šídák's method (α = 0.05) in GraphPad Prism (v 10.6.1).
(§6) 2.8 XBP1-endoplasmic reticulum (ER) stress reporter assay […]
(§7) Two sets of comparisons: 1) […]
(§8) treatment with MG132 inhibitor or RUN compounds with DMSO control, 2) RUN compounds vs MG132, were done by two-way repeated-measures ANOVA with Geisser–Greenhouse correction, followed by Dunnett’s multiple comparisons test with individual variances in […]
(§9) HCT116 parental cells (WT) and two independent DDI2 knockout clones (KO 04 and KO 11), in which NFE2L1 activation is impaired, were transiently transfected with plasmids encoding either a non-aggregating EGFP-HttQ23 or an aggregation-prone EGFP-HttQ74 construct using Lipofectamine 2000 (Thermo Fisher Scientific) according to the manufacturer’s

[2] = system: chymotrypsin-like activity of the 26S proteasome; test: Proteasome activity assay in SH-SY5Y cell lysates; type: cell-based, human; details: for Geometric mean, Treatment (Control = 1): SH-SY5Y, Figure S6
Description: as §1, §2, §3, §4, §5, §6, §7, §8, §9

IRE1/XBP1s = test: XBP1 endoplasmic reticulum stress reporter assay (CMV-XBP-GLuc); type: cell-based, human; details: Figure S5; for Mean diff, MG132 vs. RUN compound (log2-transformed values) / Mean diff, DMSO vs. treatment (log2-transformed values): Dunnett's multiple comparisons test; for Mean 2 (mean of log2-transformed values, treatment; DMSO = 0): N = 3
Excerpt: Next, we investigated whether the selected RUN compounds activate the NFE2L1 transcriptional program without triggering the unfolded protein response (UPR), a crucial cellular process induced by the accumulation of unfolded proteins in the endoplasmic reticulum (ER), potentially leading to ER stress. To monitor this, an alternative reporter was used to assess the activation of IRE1/XBP1s.[47] IRE1 is a bifunctional serine/threonine kinase and endoribonuclease embedded in the ER membrane, playing a central role in UPR signaling. Its RNase activity facilitates the splicing of X-box binding protein 1 (XBP1) mRNA. The spliced XBP1 acts as a transcription factor, promoting the re-establishment of ER homeostasis by upregulating genes involved in the ER-associated degradation (ERAD) pathway.[48–50] The reporter contains Gaussia luciferase positioned out of frame downstream of the XBP1 splice site, ensuring that active luciferase translation occurs only in the presence of ER stress.[51,52] Cells transfected with this reporter were treated with RUN compounds at 1, 5, and 10 μM, and luciferase activity was measured.
Figure S5: Impact of RUN compounds on ER stress-induced activation of the XBP1 reporter.
HEK293 cells were transfected with the CMV-XBP-GLuc reporter plasmid and allowed to stabilize overnight. Following stabilization, the cells were treated with MG132 or various concentrations of the test compounds (1, 2, 3, 5, 7.5, and 10 µM) for 16 hours. The Gaussia luciferase signal, which reflects XBP1 mRNA splicing, was adjusted based on cell viability as measured by the alamarBlue assay. Data are represented as Geomean ± GeoSD of three independent experiments ( n = 3. Statistical comparison of MG132 and RUN compounds vs DMSO and RUN compounds vs MG132 was performed on log2-transformed values using two-way repeated-measures ANOVA with Geisser –Greenhouse correction, followed by Dunnett’s multiple comparisons test with individual variances computed for each comparison. Results of the analysis are shown in Supplementary Table S15. […]
GraphPad Prism (v 10.6.1).
2.8 XBP1-endoplasmic reticulum (ER) stress reporter assay
HEK293 cells were seeded in 6-well plates and incubated for 24 hours before being transfected with a plasmid containing the CMV-XBP-Gluc reporter using Lipofectamine 2000.(4) After 6 hours, the transfected cells were subsequently transferred to 384-well plates, stabilized overnight, and treated with the proteasome inhibitor and ER stress inducer MG132 and/or various concentrations of RUN compounds (1, 5, and 10 µM) or vehicle (DMSO) for 16 hours. Luciferase activity was normalized to cell viability, which was assessed using the alamarBlue assay. The results are expressed as the fold change compared with the DMSO control, with the experiment conducted in biological triplicate. […]

Structure (SMILES)	Proteasome chymotrypsin-like activity in MCF-7 cells ([1]; 5 μM, 16 h)	Geometric mean, Treatment (Control = 1) [1]	Proteasome chymotrypsin-like activity in SH-SY5Y cells ([2]; 5 μM, 16 h)	Geometric mean, Treatment (Control = 1) [2]	Mean diff, MG132 vs. RUN compound (log2-transformed values) (IRE1/XBP1s; 1 µM)	Mean 2 (mean of log2-transformed values, treatment; DMSO = 0) (IRE1/XBP1s; 1 µM)	Mean diff, MG132 vs. RUN compound (log2-transformed values) (IRE1/XBP1s; 5 µM)	Mean 2 (mean of log2-transformed values, treatment; DMSO = 0) (IRE1/XBP1s; 5 µM)	Mean diff, MG132 vs. RUN compound (log2-transformed values) (IRE1/XBP1s; 10 uM)	Mean 2 (mean of log2-transformed values, treatment; DMSO = 0) (IRE1/XBP1s; 10 uM)	Mean diff, DMSO vs. treatment (log2-transformed values) (IRE1/XBP1s; DMSO vs. 1 µM)	Mean diff, DMSO vs. treatment (log2-transformed values) (IRE1/XBP1s; DMSO vs. 5 µM)	Mean diff, DMSO vs. treatment (log2-transformed values) (IRE1/XBP1s; DMSO vs. 10 uM)
COc1ccc(/C=C2\CC(NC(=O)C3CCCC3)C/C(=C\c3ccc(OC)c(OC)c3)C2=O)cc1OC (centres unmarked) [RUN-89]	greatest increase	1.38	higher median for RUN-89 without reaching statistical significance	1.88	1.977	0.1287	1.754	0.9716	2.213	1.744	-0.1287	-0.9716	-1.744
COc1ccc(/C=C2\CC(N)C/C(=C\c3ccc(OC)c(OC)c3)C2=O)cc1OC (centres unmarked) [RUN-81]	–	1.11	–	1.28	2.079	0.02701	2.509	0.216	3.74	0.2168	-0.02701	-0.216	-0.2168
COc1ccc(/C=C2\CC(NC(=O)c3ccccn3)C/C(=C\c3ccc(OC)c(OC)c3)C2=O)cc1OC (centres unmarked) [RUN-94]	–	1.26	–	1.50	2.183	-0.07708	1.118	1.607	2.807	1.15	0.07708	-1.607	-1.15

— article PMC12606464, “Investigating NFE2L1 activators for targeted protein aggregate clearance: a follow-up study” (RSC Medicinal Chemistry, 2025)
